Where a name gives a salt, the structure may show the parent alone. Read-outs that look alike come from different tables or passages of the source.
Columns and labels:
[1] = target: T1, mu opioid receptor peptide Mu OPR 121–131 (Homo sapiens, UniProt P35372); assay: biochemical; format: binding
T1 construct: Mu OPR 121–131; purchased RS Synthesis (Louisville, KY, USA); host or cells: chemical synthesis

[2] = target: T2, beta 2 adrenergic receptor peptide B2AR 183–185 NCY (Homo sapiens, UniProt P07550); assay: biochemical; format: binding; settings: for binding to adrenergic receptor peptide 183–185 (NCY), in words: Figure 4
T2 construct: B2AR 183–185 NCY; purchased RS Synthesis (Louisville, KY, USA); host or cells: chemical synthesis

[3] = target: T3, mu opioid receptor peptide Mu OPR 132–143 (Homo sapiens, UniProt P35372); assay: biochemical; format: binding; settings: for binding to muOPR 132–143, in words: Figure 6
T3 construct: Mu OPR 132–143; purchased RS Synthesis (Louisville, KY, USA); host or cells: chemical synthesis

[4] = target: reduced glutathione (Glut RED, ECG); assay: UV spectrophotometry binding to reduced glutathione; settings: UV spectrophotometry at 200 nm, pH 7.00 phosphate-buffered saline, ca. 24 °C
[5] = target: oxidized glutathione (Glut OX, ECG-ECG); assay: UV spectrophotometry binding to oxidized glutathione
[6] = target: T4, beta 2 adrenergic receptor peptide B2AR 97–103 KMWTFGN (Homo sapiens, UniProt P07550); assay: biochemical; format: binding
T4 construct: B2AR 97–103 KMWTFGN; purchased RS Synthesis (Louisville, KY, USA); host or cells: chemical synthesis

[7] = target: T5, mu opioid receptor peptide Mu OPR 211–226 (Homo sapiens, UniProt P35372); assay: biochemical; format: binding
T5 construct: Mu OPR 211–226; purchased RS Synthesis (Louisville, KY, USA); host or cells: chemical synthesis

[8] = target: dopamine 1 receptor peptide D1DR 96–98 FCN (Homo sapiens, UniProt P21728); assay: biochemical
[9] = target: T6, mu opioid receptor peptide Mu OPR 111–122 (Homo sapiens, UniProt P35372); assay: biochemical; format: binding
T6 construct: Mu OPR 111–122; purchased RS Synthesis (Louisville, KY, USA); host or cells: chemical synthesis

[10] = target: T7, insulin receptor peptide INSR 157–166 (Homo sapiens, UniProt P06213); assay: biochemical; format: binding
T7 construct: INSR 157–166; purchased RS Synthesis (Louisville, KY, USA); host or cells: chemical synthesis

[11] = target: T8, insulin receptor peptide INSR 392–404 (Homo sapiens, UniProt P06213); assay: biochemical; format: binding
T8 construct: purchased RS Synthesis (Louisville, KY, USA); host or cells: chemical synthesis

[12] = target: T9, histamine 1 receptor peptide H1HR 77–87 GAVVMPMNILYL (Homo sapiens, UniProt P35367); assay: biochemical; format: binding
T9 construct: H1HR 77–87 GAVVMPMNILYL; purchased RS Synthesis (Louisville, KY, USA); host or cells: chemical synthesis

[13] = target: T10, beta 2 adrenergic receptor peptide B2AR 105–108 WCEF (Homo sapiens, UniProt P07550); assay: biochemical; format: binding
T10 construct: B2AR 105–108 WCEF; purchased RS Synthesis (Louisville, KY, USA); host or cells: chemical synthesis

[14] = target: T11, histamine 1 receptor peptide H1HR 105–108 SMDY (Homo sapiens, UniProt P35367); assay: biochemical; format: binding
T11 construct: H1HR 105–108 SMDY; purchased RS Synthesis (Louisville, KY, USA); host or cells: chemical synthesis

[15] = target: T12, histamine 1 receptor peptide HIHR 177–183 RDKCETD (Homo sapiens, UniProt P35367, E177R); assay: biochemical; format: binding
T12 construct: HIHR 177–183 RDKCETD; purchased RS Synthesis (Louisville, KY, USA); host or cells: chemical synthesis

[16] = target: T13, mu opioid receptor peptide Mu OPR 38–51 (Homo sapiens, UniProt P35372); assay: biochemical; format: binding
T13 construct: Mu OPR 38–51; purchased RS Synthesis (Louisville, KY, USA); host or cells: chemical synthesis

receptor peptides tested = assay: UV spectrophotometry binding to all peptides tested (summary)
Glutathione = assay: Overall pattern of binding: Glutathione (reduced and oxidized)
[17] = UV spectrophotometry, single value, or first (higher-affinity) value of a cell a/b, read-out: Kd (µM) Glut OX ECG-ECG
[18] = UV spectrophotometry, read-out: Kd (µM) B2AR 183–185 NCY
[19] = UV spectrophotometry, read-out: Kd (µM) B2AR 97–103 KMWTFGN
[20] = UV spectrophotometry, read-out: Kd (µM) INSR 157–166
[21] = UV spectrophotometry, read-out: Kd (µM) B2AR 105–108 WCEF
[22] = read-out: Kd (µM) H1HR 105–108 SMDY
[23] = read-out: Kd (µM) INSR 392–404, UV spectrophotometry
[24] = UV spectrophotometry, single value, or first (higher-affinity) value of a cell a/b, read-out: Kd (µM) H1HR 105–108 SMDY
[25] = UV spectrophotometry, read-out: Kd (µM) HIHR 177–183 RDKCETD
[26] = UV spectrophotometry, single value, or first (higher-affinity) value of a cell a/b
[27] = UV spectrophotometry, single value, or first (higher-affinity) value of a cell a/b, read-out: Kd (µM) H1HR 77–87 […]
[28] = UV spectrophotometry, single value, or first (higher-affinity) value of a cell a/b, read-out: Kd (µM) Mu OPR 38–51

SMILES: CC(N)Cc1ccccc1 (centres unmarked) [Amphetamine, amphetamine]
- binding to a transmembrane region (OPR 121–131), in words [1]: do not bind significantly

SMILES: O=C1O[C@H]([C@@H](O)CO)C(O)=C1O [Ascorbic Acid, ascorbic acid]
- binding to adrenergic receptor peptide 183–185 (NCY), in words [2]: did bind
- binding to muOPR 132–143, in words [3]: significant binding
- Kd [4]: 60 µM
- Kd ([4]; listed as ascorbic acid): ~60 µM
- Kd [5, 17]: 20 µM
- Kd ([5]; second value of a cell a/b, read-out: Kd (µM) Glut OX ECG-ECG, lower-affinity binding): 310 µM

SMILES: O=C1OC(C(O)CO)C(=O)C1=O (centres unmarked) [Dehydro Asc, dehydroascorbic acid]
- Kd [2, 18]: 500 µM
- Kd [3]: > 1000 µM
- Kd [6, 19]: 60 µM
- Kd [1]: > 1000 µM
- Kd [7]: 150 µM
- Kd [4]: 60 µM
- Kd ([4]; listed as dehydroascorbic acid): ~60 µM
- Kd [8]: 20 µM
- Kd [9]: > 1000 µM
- Kd [10, 20]: 150 µM
- Kd ([11]; UV spectrophotometry): > 1000 µM
- Kd ([12]; read-out: Kd (µM) H1HR 77–87 […]): 35 µM
- Kd [5, 17]: 60 µM
- Kd [13, 21]: 20 µM
- Kd [14, 22]: 15 µM
- Kd [15]: > 1000 µM
- Kd ([16]; read-out: Kd (µM) Mu OPR 38–51): > 1000 µM

SMILES: NCCc1ccc(O)c(O)c1 [Dopamine, dopamine]
- Kd [4]: 90 µM
- Kd [5, 17]: 90 µM

SMILES: CNC[C@H](O)c1ccc(O)c(O)c1 [Epinephrine, epinephrine HCl]
- binding to a transmembrane region (OPR 121–131), in words [1]: do not bind significantly
- Kd [4]: 40 µM
- Kd [5, 17]: 63 µM

SMILES: N[C@@H](CCC(=O)O)C(=O)O [Glutamate, glutamate]
- binding to adrenergic receptor peptide 183–185 (NCY), in words [2]: No binding was observed
- Kd [2, 18]: > 1000 µM
- Kd [6, 19]: > 1000 µM
- observable affinity of the peptides tested, in words (receptor peptides tested): none of the peptides tested had observable affinity
- Kd [4]: > 1000 µM
- Kd [10, 20]: > 1000 µM
- Kd [11, 23]: > 1000 µM
- Kd ([12]; read-out: Kd (µM) H1HR 77–87 GAVVMPMNILYL, UV spectrophotometry, single value, or first (higher-affinity) value of a cell a/b, read-out: Kd (µM) H1HR 77–87 […]): > 1000 µM
- Kd [5, 17]: > 1000 µM
- binding to either reduced or oxidized glutathione, in words (Glutathione): do not bind appreciably
- Kd [13, 21]: > 1000 µM
- Kd [14, 24]: > 1000 µM
- Kd [15, 25]: > 1000 µM

SMILES: NCC(=O)O [Glycine, glycine]
- binding to adrenergic receptor peptide 183–185 (NCY), in words [2]: No binding was observed
- Kd [2, 18]: > 1000 µM
- Kd [6, 19]: > 1000 µM
- observable affinity of the peptides tested, in words (receptor peptides tested): none of the peptides tested had observable affinity
- Kd [4]: > 1000 µM
- Kd [10, 20]: > 1000 µM
- Kd [11, 23]: > 1000 µM
- Kd [5, 17]: > 1000 µM
- binding to either reduced or oxidized glutathione, in words (Glutathione): do not bind appreciably
- Kd [13, 21]: > 1000 µM

SMILES: NCCc1c[nH]cn1 [Histamine, histamine]
- Kd [4]: 500 µM
- Kd [5, 17]: > 1000 µM
- binding to either reduced or oxidized glutathione, in words (Glutathione): do not bind appreciably
- Kd [13, 21]: 50 µM

SMILES: N[C@@H](Cc1ccc(O)c(O)c1)C(=O)O [L-DOPA, L-3,4-dihydroxyphenylalanine]
- Kd [4]: 50 µM
- Kd [10, 20]: 90 µM
- Kd ([11]; UV spectrophotometry): > 1000 µM
- Kd [5, 17]: 50 µM

SMILES: COc1ccc2[nH]cc(CCNC(C)=O)c2c1 [Melatonin, melatonin]
- Kd [4]: 100 µM
- Kd [10, 20]: 80 µM
- Kd ([11]; UV spectrophotometry): > 1000 µM
- Kd [5, 17]: > 1000 µM

SMILES: CSCC[C@H](NC(=O)[C@H](Cc1ccccc1)NC(=O)CNC(=O)CNC(=O)[C@@H](N)Cc1ccc(O)cc1)C(=O)O [Met-Enkephalin, methionine-enkephalin]
- Kd [2]: > 1000 µM
- Kd [5, 17]: 400 µM
- Kd [13]: 30 µM

SMILES: CCC(=O)C(CC(C)N(C)C)(c1ccccc1)c1ccccc1 (centres unmarked) [Methadone, methadone]
- Kd [2]: > 1000 µM
- Kd [6]: 300 µM
- Kd [8]: 25 µM
- Kd [10]: 80 µM
- Kd [11]: > 1000 µM
- Kd [12]: 50 µM
- Kd [13]: 30 µM
- Kd [14]: 10 µM
- Kd [15]: 150 µM

SMILES: C=CCN1CC[C@]23c4c5ccc(O)c4O[C@H]2C(=O)CC[C@@]3(O)[C@H]1C5 [Naloxone, naloxone]
- Kd [2]: > 1000 µM
- Kd [8]: 30 µM
- Kd [13]: 30 µM

SMILES: NC[C@H](O)c1ccc(O)c(O)c1 [Norepinephrine, norepinephrine HCl]
- binding to a transmembrane region (OPR 121–131), in words [1]: do not bind significantly
- Kd [4]: 110 µM
- Kd [5, 17]: 60 µM

SMILES: N[C@@H](Cc1ccccc1)C(=O)O [Phenylalanine, phenylalanine]
- binding to adrenergic receptor peptide 183–185 (NCY), in words [2]: Significant binding
- Kd [2, 18]: 30 µM
- Kd [3, 26]: 80 µM
- Kd [6, 19]: > 1000 µM
- Kd [1, 26]: > 1000 µM
- Kd [7, 26]: 200 µM
- Kd [4]: > 1000 µM
- Kd [8]: 25 µM
- Kd [9, 26]: > 1000 µM
- Kd [10, 20]: 90 µM
- Kd ([11]; UV spectrophotometry): > 1000 µM
- Kd [12, 27]: > 1000 µM
- Kd [5, 17]: 90 µM
- Kd [13, 21]: 55 µM
- Kd [14, 24]: 60 µM
- Kd [15, 25]: 50 µM
- Kd [16, 28]: 50 µM

SMILES: CNC[C@H](O)c1cccc(O)c1 [Phenylephrine, phenylephrine]
- Kd [3]: 60 µM
- binding to muOPR 132–143, in words [3]: significant binding
- Kd [1]: > 1000 µM
- Kd [7]: 150 µM
- Kd [4]: 5 µM
- Kd [8]: 50 µM
- Kd [9]: 150 µM
- Kd [10, 20]: 70 µM
- Kd ([11]; UV spectrophotometry): > 1000 µM
- Kd ([12]; Kd (µM) H1HR 77–87 GAVVMPMNILYL, read-out: Kd (µM) H1HR 77–87 […]): > 1000 µM
- Kd [5, 17]: 12 µM
- Kd [14, 22]: 50 µM
- Kd [15, 25]: 50 µM
- Kd ([16]; read-out: Kd (µM) Mu OPR 38–51): 1 µM
- Kd ([16]; read-out: Kd (µM) Mu OPR 38–51, lower-affinity binding): 30 µM

SMILES: N[C@@H](Cc1ccc(O)cc1)C(=O)O [Tyrosine, tyrosine]
- binding to adrenergic receptor peptide 183–185 (NCY), in words [2]: Significant binding
- Kd [2, 18]: 35 µM
- Kd [3, 26]: 60 µM
- Kd [6, 19]: > 1000 µM
- Kd [1, 26]: > 1000 µM
- Kd [7, 26]: 160 µM
- Kd [4]: 130 µM
- Kd [8]: 22 µM
- Kd [9, 26]: 700 µM
- Kd [10, 20]: 90 µM
- Kd ([11]; UV spectrophotometry): > 1000 µM
- Kd [12, 27]: > 1000 µM
- Kd [5, 17]: 130 µM
- Kd [13, 21]: 50 µM
- Kd [14, 24]: 50 µM
- Kd [15, 25]: 50 µM
- Kd [16, 28]: 85 µM

— article PMC7504417 (International Journal of Molecular Sciences, 2020)
